Laboratory results reported in US10336732B2, “1-heterocyclyl isochromanyl compounds and analogs for treating CNS disorders” (Sunovion Pharmaceuticals Inc., priority 2015, dated 2019).

Test system: mice
Test: Neuropharmacological assay (SmartCube), behavioral signature of compound-treated mice
Format: in vivo
Details: i.p. 15 min before behavioral test, most efficacious dose(s) of 3 doses
Summary of the method: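 Read-out is an automated video-based behavioral signature, scored as per-class probabilities (e.g., anxiolytic, antidepressant) against reference compounds. Dosing was i.p. at three doses, 15 min pre-test, in NMP, polyethylene glycol and propylene glycol. Values shown are from the most efficacious dose(s).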

Compound	AD: ADHD (probability that behavioral signature matches class)	AG: analgesic (probability that behavioral signature matches class)	AX: anxiolytic (probability that behavioral signature matches class)	CE: cognitive enhancer (probability that behavioral signature matches class)	DP: anti-depressant (probability that behavioral signature matches class)	HA: hallucinogen (probability that behavioral signature matches class)	MS: mood stabilizer (probability that behavioral signature matches class)	PS: anti-psychotic (probability that behavioral signature matches class)	SD: sedative hypnotic (probability that behavioral signature matches class)	UN: uncharacterized CNS activity (probability that behavioral signature matches class)	XG: anxiogenic (probability that behavioral signature matches class)
CCN1CCC[C@H]1[C@@H]1OCCc2cc(F)ccc21 [Compound I-70, (S)-1-ethyl-2-((R)-6-fluoroisochroman-1-yl)pyrrolidine]	+ (LOQ ≤ + <5%)	++ (5% ≤ ++ <25%)	+++ (25% ≤ +++ <50%)	+ (LOQ ≤ + <5%)	++ (5% ≤ ++ <25%)	+ (LOQ ≤ + <5%)	+ (LOQ ≤ + <5%)	+ (LOQ ≤ + <5%)	+ (LOQ ≤ + <5%)	+ (LOQ ≤ + <5%)	+ (LOQ ≤ + <5%)
Clc1ccc2c(c1)[C@@H]([C@H]1CCCN1)OCC2 [Compound I-32, (R)-2-((S)-7-chloroisochroman-1-yl)pyrrolidine]	+ (LOQ ≤ + <5%)	+++ (25% ≤ +++ <50%)	++ (5% ≤ ++ <25%)	++ (5% ≤ ++ <25%)	++ (5% ≤ ++ <25%)	+ (LOQ ≤ + <5%)	+ (LOQ ≤ + <5%)	+++ (25% ≤ +++ <50%)	++ (5% ≤ ++ <25%)	+ (LOQ ≤ + <5%)	+ (LOQ ≤ + <5%)
Fc1ccc2c(c1)CCCO[C@H]2[C@H]1CCCN1 [Compound I-113, (R)-2-((R)-7-fluoro-1,3,4,5-tetrahydrobenzo[c]oxepin-1-yl)pyrrolidine]	+ (LOQ ≤ + <5%)	++ (5% ≤ ++ <25%)	++ (5% ≤ ++ <25%)	++ (5% ≤ ++ <25%)	+++ (25% ≤ +++ <50%)	+ (LOQ ≤ + <5%)	+ (LOQ ≤ + <5%)	++ (5% ≤ ++ <25%)	++ (5% ≤ ++ <25%)	+ (LOQ ≤ + <5%)	+ (LOQ ≤ + <5%)
FC1(F)CO[C@@H]([C@@H]2CCCN2)c2ccccc21 [Compound I-140, (S)-2-((R)-4,4-difluoroisochroman-1-yl)pyrrolidine]	+ (LOQ ≤ + <5%)	++ (5% ≤ ++ <25%)	++ (5% ≤ ++ <25%)	+++ (25% ≤ +++ <50%)	++ (5% ≤ ++ <25%)	+ (LOQ ≤ + <5%)	++ (5% ≤ ++ <25%)	++ (5% ≤ ++ <25%)	+++ (25% ≤ +++ <50%)	++ (5% ≤ ++ <25%)	+ (LOQ ≤ + <5%)
Fc1ccc2c(c1)[C@H]([C@H]1CCN1)OCC2 [Compound I-87, (R)-2-((R)-7-fluoroisochroman-1-yl)azetidine]	+ (LOQ ≤ + <5%)	++ (5% ≤ ++ <25%)	++ (5% ≤ ++ <25%)	+ (LOQ ≤ + <5%)	++ (5% ≤ ++ <25%)	+ (LOQ ≤ + <5%)	+ (LOQ ≤ + <5%)	+++ (25% ≤ +++ <50%)	+ (LOQ ≤ + <5%)	++ (5% ≤ ++ <25%)	+ (LOQ ≤ + <5%)
c1ccc2c(c1)CCO[C@@H]2[C@@H]1CCN1 [Compound I-79, (S)-2-((S)-isochroman-1-yl)azetidine]	++ (5% ≤ ++ <25%)	++ (5% ≤ ++ <25%)	+++ (25% ≤ +++ <50%)	++ (5% ≤ ++ <25%)	++ (5% ≤ ++ <25%)	+ (LOQ ≤ + <5%)	++ (5% ≤ ++ <25%)	+++ (25% ≤ +++ <50%)	+ (LOQ ≤ + <5%)	+ (LOQ ≤ + <5%)	+ (LOQ ≤ + <5%)
Fc1ccc2c(c1)CCCO[C@@H]2[C@@H]1CCCN1 [Compound I-110, (S)-2-((S)-7-fluoro-1,3,4,5-tetrahydrobenzo[c]oxepin-1-yl)pyrrolidine]	+ (LOQ ≤ + <5%)	++ (5% ≤ ++ <25%)	++ (5% ≤ ++ <25%)	++ (5% ≤ ++ <25%)	++ (5% ≤ ++ <25%)	+ (LOQ ≤ + <5%)	+ (LOQ ≤ + <5%)	++++ (50% ≤ ++++)	++ (5% ≤ ++ <25%)	+++ (25% ≤ +++ <50%)	+ (LOQ ≤ + <5%)
C[C@]1([C@@H]2CCCN2)OCc2cc(F)ccc21 [Compound I-123, (S)-2-((S)-5-fluoro-1-methyl-1,3-dihydroisobenzofuran-1-yl)pyrrolidine]	+ (LOQ ≤ + <5%)	+ (LOQ ≤ + <5%)	+ (LOQ ≤ + <5%)	+ (LOQ ≤ + <5%)	+ (LOQ ≤ + <5%)	+ (LOQ ≤ + <5%)	+ (LOQ ≤ + <5%)	+ (LOQ ≤ + <5%)	+ (LOQ ≤ + <5%)	+ (LOQ ≤ + <5%)	+ (LOQ ≤ + <5%)
c1ccc(-c2ccc3c(c2)CCO[C@@H]3[C@@H]2CCCN2)nc1 [Compound I-57, 2-((S)-1-((S)-pyrrolidin-2-yl)isochroman-6-yl)pyridine]	+ (LOQ ≤ + <5%)	+ (LOQ ≤ + <5%)	+ (LOQ ≤ + <5%)	+ (LOQ ≤ + <5%)	+ (LOQ ≤ + <5%)	+ (LOQ ≤ + <5%)	+ (LOQ ≤ + <5%)	+ (LOQ ≤ + <5%)	+ (LOQ ≤ + <5%)	+ (LOQ ≤ + <5%)	+ (LOQ ≤ + <5%)
c1ccc2c(c1)CCO[C@H]2[C@H]1CCCN1 [Compound I-19, (R)-2-((R)-isochroman-1-yl)pyrrolidine]	+ (LOQ ≤ + <5%)	+ (LOQ ≤ + <5%)	++ (5% ≤ ++ <25%)	++ (5% ≤ ++ <25%)	+ (LOQ ≤ + <5%)	+ (LOQ ≤ + <5%)	+ (LOQ ≤ + <5%)	++++ (50% ≤ ++++)	+ (LOQ ≤ + <5%)	++++ (50% ≤ ++++)	+ (LOQ ≤ + <5%)
Fc1ccc2c(c1)[C@H](F)CO[C@H]2[C@@H]1CCN1 [Compound I-135, (2S)-2-((1R)-4,6-difluoroisochroman-1-yl)azetidine]	+ (LOQ ≤ + <5%)	++ (5% ≤ ++ <25%)	++ (5% ≤ ++ <25%)	++ (5% ≤ ++ <25%)	++ (5% ≤ ++ <25%)	+ (LOQ ≤ + <5%)	++ (5% ≤ ++ <25%)	+++ (25% ≤ +++ <50%)	++ (5% ≤ ++ <25%)	++ (5% ≤ ++ <25%)	+ (LOQ ≤ + <5%)
